The record followed here is article PMC9502272, “A Metabolomics Approach for Predicting OATP1B-Type Transporter-Mediated Drug–Drug Interaction Liabilities” (Pharmaceutics, 2022).

Values joined by “and” are separate entries in the source; they are usually repeats but may differ in a detail not shown here. Identical values can stand only once.

The subject of one data set is human OATP1B1. Put plainly: Baseline plasma CDCA-24G in Oatp1a/1b(−/−) mice with transgenic hepatic expression of OATP1B1 (OATP1B1(tg)). The data set is classed as in vivo, mouse. As to conditions: range stated jointly for OATP1B1(tg) and OATP1B3(tg). The procedure: (§1) Plasma concentrations of levels of CDCA-24G and glycochenodeoxycholate-3-sulfate (GCDCA-S) were determined using LC-MS/MS using a Vanquish UHPLC coupled with a Quantiva triple quadrupole mass spectrometer (Thermo Fisher Scientific, Waltham, MA, USA). An Accucore aQ column (50 × 2.1 mm, dp = 2.6 μm; Thermo Fisher Scientific) was protected by a C18 AQUASIL guard cartridge (2.1 mm × 10 mm, dp = 3 μm; Thermo Fisher Scientific). The injection volume of sample was 5.0 μL. The temperature of the autosampler rack was 4 °C, and the temperature of the column was maintained at 20 °C. The mobile phase was composed of solvent A (2 mmol ammonium acetate in water) and solvent B (100% methanol), and the total run time was 4.6 min. The gradient conditions were as follows: 0–0.5 min, 45% B; 0.5–2.0 min, 45 to 90%, 2.0–4.0 min, 90% B; 4.0–4.6 min, 45% B, delivered at a flow rate of 0.4 mL/min. […] Precursor molecular ions, and product ions were recorded for the confirmation and detection of GCDCA-S (528.4 > 448.3) and CDCA-24G (567.4 > 391.1), using [^2H5]-GCDCA-S (535.5 > 453.3) and [^2H5]-CDCA-24G (572.5 > 396.1) as respective internal standards. The lower limit of quantitation (LLOQ) for both analytes was determined to be 0.5 ng/mL. […]

The subject of a further data set is human OATP1B3. Put plainly: Baseline plasma CDCA-24G in Oatp1a/1b(−/−) mice with transgenic hepatic expression of OATP1B3 (OATP1B3(tg)). It is filed as in vivo. The conditions noted are these: range stated jointly for OATP1B1(tg) and OATP1B3(tg). The procedure:
as §1

In another data set the target is T1, OATP1B1 (Homo sapiens, UniProt Q9Y6L6).
T1 construct: expressed in transfected cells; host or cells: HEK293 (ATCC)
T1 sequence (Q9Y6L6 1-691): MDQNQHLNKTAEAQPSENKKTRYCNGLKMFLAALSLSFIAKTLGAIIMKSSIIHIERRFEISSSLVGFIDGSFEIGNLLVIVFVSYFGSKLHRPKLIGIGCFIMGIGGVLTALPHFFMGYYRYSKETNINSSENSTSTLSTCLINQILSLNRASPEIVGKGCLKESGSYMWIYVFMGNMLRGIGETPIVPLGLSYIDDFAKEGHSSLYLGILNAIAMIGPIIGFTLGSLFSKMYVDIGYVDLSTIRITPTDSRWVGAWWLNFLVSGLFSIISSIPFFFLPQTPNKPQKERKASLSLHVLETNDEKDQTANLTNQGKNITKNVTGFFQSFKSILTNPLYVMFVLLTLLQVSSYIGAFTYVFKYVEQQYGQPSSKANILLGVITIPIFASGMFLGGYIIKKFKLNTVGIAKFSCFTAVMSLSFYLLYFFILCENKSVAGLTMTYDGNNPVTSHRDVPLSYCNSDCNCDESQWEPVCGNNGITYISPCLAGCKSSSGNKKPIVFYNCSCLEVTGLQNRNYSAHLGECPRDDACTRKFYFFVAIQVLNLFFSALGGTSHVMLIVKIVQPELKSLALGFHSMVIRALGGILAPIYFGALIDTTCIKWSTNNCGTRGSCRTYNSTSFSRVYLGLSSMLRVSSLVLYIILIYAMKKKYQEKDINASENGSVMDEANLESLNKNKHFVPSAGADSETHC
The experiment in a line: Uptake in HEK293 cells overexpressing OATP1B1. It is filed as cell-based. As to conditions: HEK293 cells overexpressing OATP1B1, 5 min uptake, vs empty vector. The procedure:
The generation of human embryonic kidney (HEK293) cells (ATCC) engineered to overexpress OATP1B1, Oatp1b2, or empty vector, the cell culture conditions, and general details of uptake studies have been reported in detail elsewhere. Briefly, cells were grown to 90% confluence on poly-lysine coated multi-well plates. […] The pre-treatment medium was rinsed off with warm 1× PBS followed by the addition of the test compounds for an incubation period of 5 min. After incubation, transport was halted by aspirating the medium and rinsing the cells three times with ice-cold 1× PBS. After lysing cells with 0.1 N HCl, and subsequent adding methanol, 20 μL aliquots were mixed with 60 μL of acetonitrile containing relevant internal standards. After vortex mixing, the mixtures were centrifuged, and the supernatants were used for quantitative analysis by LC-MS/MS. Drug uptake results were normalized to total protein content and then to data obtained in cells carrying an empty vector plasmid, which was set to 100%.

Data set [1] deals with T2, Oatp1b2 (Mus musculus, UniProt Q9JJL3).
T2 sequence (Q9JJL3 1-689): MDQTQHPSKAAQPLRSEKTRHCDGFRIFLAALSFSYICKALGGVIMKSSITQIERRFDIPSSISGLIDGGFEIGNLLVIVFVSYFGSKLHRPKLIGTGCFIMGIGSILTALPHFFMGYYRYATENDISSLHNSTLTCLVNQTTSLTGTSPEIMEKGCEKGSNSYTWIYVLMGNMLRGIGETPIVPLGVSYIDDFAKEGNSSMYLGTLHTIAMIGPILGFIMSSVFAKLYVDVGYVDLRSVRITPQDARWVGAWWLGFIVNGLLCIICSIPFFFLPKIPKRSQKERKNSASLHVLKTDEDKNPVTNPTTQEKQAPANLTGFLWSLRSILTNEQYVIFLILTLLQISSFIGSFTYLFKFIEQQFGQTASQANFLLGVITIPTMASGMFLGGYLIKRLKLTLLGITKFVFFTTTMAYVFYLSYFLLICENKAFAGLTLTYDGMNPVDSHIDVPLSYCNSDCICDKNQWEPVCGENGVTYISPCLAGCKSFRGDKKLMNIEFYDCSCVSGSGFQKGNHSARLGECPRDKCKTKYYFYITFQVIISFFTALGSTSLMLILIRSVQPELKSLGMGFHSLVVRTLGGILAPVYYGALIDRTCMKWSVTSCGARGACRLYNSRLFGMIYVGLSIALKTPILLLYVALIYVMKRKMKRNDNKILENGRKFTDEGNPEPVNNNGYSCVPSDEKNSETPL
Put plainly: Untargeted metabolomics of plasma from untreated wild-type and Oatp1b2(−/−) mice.
Experimental: For all experiments, age- and sex-matched mice (8–12 weeks old) were used. […] Mice with a deficiency of Oatp1b2 (Oatp1b2(−/−) mice), the single murine orthologue of OATP1B1 and OATP1B3 in humans, on a DBA/1LacJ background were kindly provided by Drs. Richard B. Kim (Western University, London, Ontario, Canada) and Jeffrey L. Stock (Pfizer, Groton, CT, USA).
Plasma samples from untreated wild-type mice and Oatp1b2(−/−) mice were analyzed for structurally named and unknown molecules using a non-targeted semi-quantitative liquid chromatography-tandem mass spectrometry (LC-MS/MS) and gas chromatography-mass spectrometry platforms (Metabolon, Durham, NC, USA). Compounds were identified by comparison with library entries of purified standards or recurrent unknown entities.

Data set [2] has as its target T2, Oatp1b2. Put plainly: Baseline plasma CDCA-24G in Oatp1b2(−/−) vs wild-type mice, validated quantitative LC-MS/MS. It is filed as in vivo. Also noted: from tissue; host or cells: living wild-type mice (DBA/1LacJ or FVB background); hepatic transporter in vivo. As to conditions: untreated, n = 6 per group. The procedure:
as §1

Take `C[C@H](CCC(=O)O[C@@H]1O[C@H](C(=O)O)[C@@H](O)[C@H](O)[C@H]1O)[C@H]1CC[C@H]2[C@@H]3[C@H](O)C[C@@H]4C[C@H](O)CC[C@]4(C)[C@H]3CC[C@]12C` [CDCA-24G, chenodeoxycholate-24-glucuronide]: the “Baseline CDCA-24G level, fold lower than in Oatp1a/1b(−/−) mice” value in the data set on human OATP1B1 and in the data set with human OATP1B3 was 5- to 7 fold each time. Further, on OATP1B1, the “Transport by human OATP1B-type transporter” value is reported as “efficiently transported”. In addition, the “Increase of plasma level in Oatp1b2(−/−) mice vs. wild-type mice” value on Oatp1b2 [1] (based on semi-quantitative analysis) was “≈ 98 fold”. Further, the “Fold of Change KO/WT” value on Oatp1b2 [1] (plasma of untreated Oatp1b2-deficient (KO) vs wild-type (WT) mice, semi-quantitative, positive = higher in KO, n = 6 per group) stood at 97.9. The “Mean value KO” value at Oatp1b2 [1] (plasma of untreated Oatp1b2-deficient mice, raw area counts rescaled to median = 1) stood at 1.15. Also, the “Mean value WT” value at Oatp1b2 [1] (plasma of untreated wild-type mice, raw area counts rescaled to median = 1) is on record as “.0120”. The “Plasma concentration of CDCA-24G in Oatp1b2(−/−) mice relative to wild type” value at Oatp1b2 [2] was 31 fold and > 30 fold.
